Measured values from patent publication US8350062B2, “Synthesis and anticancer activity of new actin-targeting small-molecule agents” (priority 2009, dated 2013).

Tests used:
Assay type in all cases: cell-based, human
[1] = system: A549 cells; assay: Cell viability assay (CellTiter-Glo), growth inhibition of A549 cells; settings: 24-96 h
Method: Cell Viability Assays. All assays were performed using at least three replicate wells for each concentration tested. Original 10-25 mM DMSO stock solution of bistramide A or its analogs was diluted to 100 μM for analogs 4-8, 10 μM for analog 3, 5 μM for analog 2 and 1 μM for bistramide A (1) with F-12K cell culture media supplemented with 10% fetal bovine serum, 100 I.U./ml penicillin, 100 μg/ml streptomycin and 2 mM L-glutamine. Two-fold serial dilutions were performed and used for cell-based assays. A549 cells were grown in 96-well white plates at the density of 1,000 cells per well in 100 μl F-12K cell culture media. Cells were allowed to attach over 24 h and treated with 30 μl of the drug solution and incubated further for 48 h. After incubation, cell viability was determined using luminescence-based commercial kit (CellTiter-Glo, Promega) and luminescence measured using a Wallac Victor 3 plate reader. To measure cell growth inhibition, viability assays were performed twice: at initial time point T0 and after 48 h incubation (T48). Change in the number of viable cells was measured, and GI50 was calculated from sigmoidal plots. For analog 10, growth of A549 and PC3 cells was monitored over 96 h following addition of the drug. 100 μM was the highest concentration tested. At no point did the total DMSO conc. exceed 1%.

[2] = system: CCRF-CEM; assay: NCI 60 cell line single dose screen; settings: CCRF-CEM (Leukemia), 10 micromolar, 48 h
From the text: (§1) Analog 10 was screened utilizing 60 different human tumor cell lines, representing leukemia, melanoma and cancers of the lung, colon, brain, ovary, breast, prostate, and kidney in order to show selective growth inhibition or cell killing of particular tumor cell lines. This screen is unique in that the complexity of a 60 cell line dose response produced by a given compound results in a biological response pattern which can be utilized in pattern recognition algorithms (COMPARE program. See: http://dtp.nci.nih.gov/docs/compare/compare.html). Using these algorithms, it is possible to assign a putative mechanism of action to a test compound, or to determine that the response pattern is unique and not similar to that of any of the standard prototype compounds included in the NCI database. In addition, following characterization of various cellular molecular targets in the 60 cell lines, it may be possible to select compounds most likely to interact with a specific molecular target.
(§2) The screening is a two-stage process, beginning with the evaluation of the compound against the 60 cell lines at a single dose of 10 uM.
(§3) The human tumor cell lines of the cancer screening panel are grown in RPMI 1640 medium containing 5% fetal bovine serum and 2 mM L-glutamine. For a typical screening experiment, cells are inoculated into 96 well microtiter plates in 100 μL at plating densities ranging from 5,000 to 40,000 cells/well depending on the doubling time of individual cell lines. After cell inoculation, the microtiter plates are incubated at 37° C., 5% CO2, 95% air and 100% relative humidity for 24 h prior to addition of experimental drug.
(§4) After 24 h, two plates of each cell line are fixed in situ with TCA, to represent a measurement of the cell population for each cell line at the time of drug addition (Tz). Experimental drugs are solubilized in dimethyl sulfoxide at 400-fold the desired final maximum test concentration and stored frozen prior to use. At the time of drug addition, an aliquot of frozen concentrate is thawed and diluted to twice the desired final maximum test concentration with complete medium containing 50 μg/ml gentamicin.
(§5) Following drug addition, the plates are incubated for an additional 48 h at 37° C., 5% CO2, 95% air, and 100% relative humidity. For adherent cells, the assay is terminated by the addition of cold TCA. Cells are fixed in situ by the gentle addition of […] of cold 50% (w/v) TCA (final concentration, 10% TCA) and incubated for 60 minutes at 4° C. The supernatant is discarded, and the plates are washed five times with tap water and air dried. Sulforhodamine B (SRB) solution (100 μl) at 0.4% (w/v) in 1% acetic acid is added to each well, and plates are incubated for 10 minutes at room temperature. After staining, unbound dye is removed by washing five times with 1% acetic acid and the plates are air dried. Bound stain is subsequently solubilized with 10 mM trizma base, and the absorbance is read on an automated plate reader at a wavelength of 515 nm. For suspension cells, the methodology is the same except that the assay is terminated by fixing settled cells at the bottom of the wells by gently adding 50 μl of 80% TCA (final concentration, 16% TCA). Using the absorbance measurements [time zero, (Tz), control growth, (C), and test growth in the presence of drug (Ti)], the percentage growth is calculated.

[3] = system: MALME-3M; assay: NCI 60 cell line single dose screen; settings: MALME-3M (Melanoma), 10 micromolar, 48 h
From the text: as §1, §2, §3, §4, §5

[4] = system: CAKI-1; assay: NCI 60 cell line single dose screen; settings: CAKI-1 (Renal Cancer), 10 micromolar, 48 h
From the text: as §1, §2, §3, §4, §5

[5] = system: MCF7; assay: NCI 60 cell line single dose screen; settings: MCF7 (Breast Cancer), 10 micromolar, 48 h
From the text: as §1, §2, §3, §4, §5

[6] = system: M14; assay: NCI 60 cell line single dose screen; settings: M14 (Melanoma), 10 micromolar, 48 h
From the text: as §1, §2, §3, §4, §5

[7] = system: OVCAR-8; assay: NCI 60 cell line single dose screen; settings: OVCAR-8 (Ovarian Cancer), 10 micromolar, 48 h
From the text: as §1, §2, §3, §4, §5

[8] = system: RPMI-8226; assay: NCI 60 cell line single dose screen; settings: RPMI-8226 (Leukemia), 10 micromolar, 48 h
From the text: as §1, §2, §3, §4, §5

[9] = system: SK-OV-3; assay: NCI 60 cell line single dose screen; settings: SK-OV-3 (Ovarian Cancer), 10 micromolar, 48 h
From the text: as §1, §2, §3, §4, §5

[10] = system: UACC-62; assay: NCI 60 cell line single dose screen; settings: UACC-62 (Melanoma), 10 micromolar, 48 h
From the text: as §1, §2, §3, §4, §5

[11] = system: EKVX; assay: NCI 60 cell line single dose screen; settings: EKVX (Non-Small Cell Lung Cancer), 10 micromolar, 48 h
From the text: as §1, §2, §3, §4, §5

[12] = system: MOLT-4; assay: NCI 60 cell line single dose screen; settings: MOLT-4 (Leukemia), 10 micromolar, 48 h
From the text: as §1, §2, §3, §4, §5

[13] = system: SNB-75; assay: NCI 60 cell line single dose screen; settings: SNB-75 (CNS Cancer), 10 micromolar, 48 h
From the text: as §1, §2, §3, §4, §5

[14] = system: OVCAR-5; assay: NCI 60 cell line single dose screen; settings: OVCAR-5 (Ovarian Cancer), 10 micromolar, 48 h
From the text: as §1, §2, §3, §4, §5

## COCCC(=O)NC[C@H](O)[C@H](C)C(=O)NCCC[C@H]1O[C@@]2(CCC[C@@H](CC[C@H](C)/C=C(\C)[C@H](C)O)O2)CCC1C (some centres unmarked) [Analog 10]
[1]
  concentration giving complete growth inhibition: 5 µM
[2]
  Growth Percent: 24.00%
[3]
  Growth Percent: 72.36%
[4]
  Growth Percent: −37.52%
[5]
  Growth Percent: 62.27%
[6]
  Growth Percent: 71.74%
[7]
  Growth Percent: 90.22%
[8]
  Growth Percent: 58.70%
[9]
  Growth Percent: 59.10%
[10]
  Growth Percent: 48.46%
[11]
  Growth Percent: 29.10%
[12]
  Growth Percent: 57.48%
[13]
  Growth Percent: 6.67%
[14]
  Growth Percent: 61.79%
